Laboratory results: patent US10543212B2, “Substituted amines for treating cardiac diseases” (Cardurion Pharmaceuticals, LLC, priority 2017, dated 2020)

target: T1, Full-length, GST-tagged, human CaMKIIδ (Homo sapiens, UniProt Q13557); assay: CaMKIIδ binding assay (TR-FRET with BODIPY-labeled probe ligand); settings: CaMKIIδ binding assay, results of Table 2
T1 construct: Full-Length, Glutathione-S-Transferase(GST)-Tagged, Human CaMKIIδ was purchased from Carna Biosciences; purchased Carna Biosciences 02-111
In short: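 TR-FRET probe-displacement binding: 0.5 nM GST-CaMKIIδ with 10 μg/mL calmodulin, 1 mM CaCl2, 0.21 nM Tb-anti-GST Ab and 300 nM BODIPY probe in HEPES pH 7.6 buffer. Eight-point 4-fold dilutions, 1 hr at room temperature. IC50 from logistic fit; 100% inhibition defined by 3 μM parent compound.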

T1 sequence (Q13557 1-478 isoform Q13557-12): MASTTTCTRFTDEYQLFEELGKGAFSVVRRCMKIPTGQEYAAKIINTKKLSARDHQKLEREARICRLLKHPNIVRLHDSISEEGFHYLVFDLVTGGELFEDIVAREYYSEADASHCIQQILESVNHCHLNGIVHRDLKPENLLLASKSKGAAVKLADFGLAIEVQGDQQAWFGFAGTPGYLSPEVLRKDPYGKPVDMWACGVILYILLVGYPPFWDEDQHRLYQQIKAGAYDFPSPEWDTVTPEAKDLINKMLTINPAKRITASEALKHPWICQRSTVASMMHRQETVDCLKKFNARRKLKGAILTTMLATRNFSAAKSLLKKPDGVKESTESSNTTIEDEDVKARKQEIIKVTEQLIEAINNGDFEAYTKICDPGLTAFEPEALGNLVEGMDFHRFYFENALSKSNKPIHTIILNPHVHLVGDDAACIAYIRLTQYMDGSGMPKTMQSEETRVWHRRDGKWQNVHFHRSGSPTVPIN

SMILES | IC50 [nM]
COc1cc(C2CCN(C3COC3)CC2)c(C)cc1Nc1ncc(-c2ccc(Cl)c(O[C@@H](C)Cn3cnnn3)c2)cn1 [Example 529, (S)-5-(3-((1-(1H-tetrazol-1-yl)propan-2-yl)oxy)-4-chlorophenyl)-N-(2-methoxy-5-methyl-4-(1-(oxetan-3-yl)piperidin-4-yl)phenyl)pyrimidin-2-amine] | < 10
COc1cc2c(cc1Nc1ncc(-c3ccc(Cl)c(O[C@@H](C)Cn4cnnn4)c3)cn1)C(=O)N(C1CCOCC1)C2 [Example 438, (S)-6-((5-(3-((1-(1H-tetrazol-1-yl)propan-2-yl)oxy)-4-chlorophenyl)pyrimidin-2-yl)amino)-5-methoxy-2-(tetrahydro-2H-pyran-4-yl)isoindolin-1-one] | 10 to 100
COc1cc(C2CCN(C3COC3)CC2)c(C)cc1Nc1ncc(-c2ccc(C#N)c(O[C@@H](C)Cn3cnnn3)c2)cn1 [Example 528, (S)-2-((1-(1H-tetrazol-1-yl)propan-2-yl)oxy)-4-(2-((2-methoxy-5-methyl-4-(1-(oxetan-3-yl)piperidin-4-yl)phenyl)amino)pyrimidin-5-yl)benzonitrile] | < 10
COc1ccc(C(=O)N2C[C@@H](C)N[C@@H](C)C2)cc1Nc1ncc(-c2ccc(Cl)c(O[C@@H](C)Cn3cnnn3)c2)cn1 [Example 570, (3-((5-(3-(((S)-1-(1H-tetrazol-1-yl)propan-2-yl)oxy)-4-chlorophenyl)pyrimidin-2-yl)amino)-4-methoxyphenyl) (cis-3,5-dimethylpiperazin-1-yl)methanone] | < 10
C[C@@H](Cn1cnnn1)Oc1cc(-c2cnc(Nc3cn(C4CCN(Cc5nccs5)CC4)nc3C(F)(F)F)nc2)ccc1Cl [Example 551, (S)-5-(3-((1-(1H-tetrazol-1-yl)propan-2-yl)oxy)-4-chlorophenyl)-N-(1-(1-(thiazol-2-ylmethyl)piperidin-4-yl)-3-(trifluoromethyl)-1H-pyrazol-4-yl)pyrimidin-2-amine] | 10 to 100
COc1cc2c(cc1Nc1ncc(-c3ccc(Cl)c(O[C@@H](C)Cn4cnnn4)c3)cn1)CNCC2 [Example 461, (S)-N-(5-(3-((1-(1H-tetrazol-1-yl)propan-2-yl)oxy)-4-chlorophenyl)pyrimidin-2-yl)-6-methoxy-1,2,3,4-tetrahydroisoquinolin-7-amine] | < 10
Cc1ncc(N2CC(O)C2)cc1Nc1ncc(-c2ccc(Cl)c(O[C@@H](C)Cn3cnnn3)c2)cn1 [Example 523, (S)-1-(5-((5-(3-((1-(1H-tetrazol-1-yl)propan-2-yl)oxy)-4-chlorophenyl)pyrimidin-2-yl)amino)-6-methylpyridin-3-yl)azetidin-3-ol] | 10 to 100
COc1cc2c(cc1Nc1ncc(-c3ccc(Cl)c(O[C@@H](C)Cn4cnnn4)c3)cn1)CN(C1COC1)CCO2 [Example 454, (S)-N-(5-(3-((1-(1H-tetrazol-1-yl)propan-2-yl)oxy)-4-chlorophenyl)pyrimidin-2-yl)-8-methoxy-4-(oxetan-3-yl)-2,3,4,5-tetrahydrobenzo[f][1,4]oxazepin-7-amine] | ≥ 100

same assay, conditions: CaMKIIδ binding assay; activity class per Table 2

SMILES | IC50 [nM]
C[C@@H](Cn1cnnn1)Oc1cc(-c2cnc(Nc3cn(C4CC5(C4)CN(C4CCC4)C5)nc3OC3COC3)nc2)ccc1Cl [Example 945, (S)-5-(3-((1-(1H-tetrazol-1-yl)propan-2-yl)oxy)-4-chlorophenyl)-N-(1-(2-cyclobutyl-2-azaspiro[3.3]heptan-6-yl)-3-(oxetan-3-yloxy)-1H-pyrazol-4-yl)pyrimidin-2-amine] | < 10
C[C@H](Cn1cnnn1)Oc1cc(-c2cnc(Nc3cn([C@H]4CC[C@H](N5CCOCC5)CC4)nc3C(F)(F)F)nc2)ccc1Cl [Example 893, 5-(3-(((R)-1-(1H-tetrazol-1-yl)propan-2-yl)oxy)-4-chlorophenyl)-N-(1-(trans-4-morpholinocyclohexyl)-3-(trifluoromethyl)-1H-pyrazol-4-yl)pyrimidin-2-amine] | 10 to 100
C[C@@H](Cn1cnnn1)Oc1cc(-c2cnc(Nc3cn(C4CC5(C4)CN(C4COC(C)(C)OC4)C5)nc3C(F)(F)F)nc2)ccc1Cl [Example 922, (S)-5-(3-((1-(1H-tetrazol-1-yl)propan-2-yl)oxy)-4-chlorophenyl)-N-(1-(2-(2,2-dimethyl-1,3-dioxan-5-yl)-2-azaspiro[3.3]heptan-6-yl)-3-(trifluoromethyl)-1H-pyrazol-4-yl)pyrimidin-2-amine] | < 10
C[C@@H](Cn1cnnn1)Oc1cc(-c2cnc(Nc3cn(C4CC5(C4)CN(C4COC4)C5)nc3OCC(F)(F)F)nc2)ccc1C(F)F [Example 950, (S)-5-(3-((1-(1H-tetrazol-1-yl)propan-2-yl)oxy)-4-(difluoromethyl)phenyl)-N-(1-(2-(oxetan-3-yl)-2-azaspiro[3.3]heptan-6-yl)-3-(2,2,2-trifluoroethoxy)-1H-pyrazol-4-yl)pyrimidin-2-amine] | < 10

same assay, conditions: Table 2; CaMKIIδ binding assay, activity given as class A/B/C

SMILES | IC50 [nM]
C[C@@H](Cn1cnnn1)Oc1cc(-c2cnc(Nc3cn([C@H]4CC[C@@H](N5CCOCC5)CC4)nc3OCC(F)(F)F)nc2)ccc1Cl [Example 780, 5-(3-(((S)-1-(1H-tetrazol-1-yl)propan-2-yl)oxy)-4-chlorophenyl)-N-(1-(cis-4-morpholinocyclohexyl)-3-(2,2,2-trifluoroethoxy)-1H-pyrazol-4-yl)pyrimidin-2-amine] | < 10
C[C@@H](Cn1cnnn1)Oc1cc(-c2cnc(Nc3cn(-c4ccc(=O)[nH]c4)nc3C(F)(F)F)nc2)ccc1Cl [Example 868, (S)-5-(4-((5-(3-((1-(1H-tetrazol-1-yl)propan-2-yl)oxy)-4-chlorophenyl)pyrimidin-2-yl)amino)-3-(trifluoromethyl)-1H-pyrazol-1-yl)pyridin-2(1H)-one] | 10 to 100
C[C@@H](Cn1cnnn1)Oc1cc(-c2cnc(Nc3cn([C@H]4CC[C@@H](N5CCC5)CC4)nc3C(F)(F)F)nc2)ccc1Cl [Example 778, 5-(3-(((S)-1-(1H-tetrazol-1-yl)propan-2-yl)oxy)-4-chlorophenyl)-N-(1-(cis-4-(azetidin-1-yl)cyclohexyl)-3-(trifluoromethyl)-1H-pyrazol-4-yl)pyrimidin-2-amine] | < 10
C[C@H](O)Cn1cc(Nc2ncc(-c3ccc(Cl)c(O[C@@H](C)Cn4cnnn4)c3)cn2)c(OCC(F)(F)F)n1 [Example 833, (S)-1-(4-((5-(3-(((S)-1-(1H-tetrazol-1-yl)propan-2-yl)oxy)-4-chlorophenyl)pyrimidin-2-yl)amino)-3-(2,2,2-trifluoroethoxy)-1H-pyrazol-1-yl)propan-2-ol] | < 10
CCOC(=O)c1c(Nc2ncc(-c3ccc(Cl)c(O[C@@H](C)Cn4cnnn4)c3)cn2)cnn1CC [Example 872, ethyl (S)-4-((5-(3-((1-(1H-tetrazol-1-yl)propan-2-yl)oxy)-4-chlorophenyl)pyrimidin-2-yl)amino)-1-ethyl-1H-pyrazole-5-carboxylate] | < 10
C[C@@H](Cn1cnnn1)Oc1cc(-c2cnc(Nc3cn(CC4(O)CCN(C(=O)OC(C)(C)C)CC4)nc3C(F)(F)F)nc2)ccc1Cl [Example 874, tert-butyl (S)-4-((4-((5-(3-((1-(1H-tetrazol-1-yl)propan-2-yl)oxy)-4-chlorophenyl)pyrimidin-2-yl)amino)-3-(trifluoromethyl)-1H-pyrazol-1-yl)methyl)-4-hydroxypiperidine-1-carboxylate] | 10 to 100

same assay, conditions: Table 2; activity class for CaMKIIδ

SMILES | IC50 [nM]
C[C@@H](Cn1cnnn1)Oc1cc(-c2cnc(Nc3cn(C4CN(C(=O)OC(C)(C)C)C4)nc3C(F)(F)F)nc2)ccc1Cl [Example 696, tert-butyl (S)-3-(4-((5-(3-((1-(1H-tetrazol-1-yl)propan-2-yl)oxy)-4-chlorophenyl)pyrimidin-2-yl)amino)-3-(trifluoromethyl)-1H-pyrazol-1-yl)azetidine-1-carboxylate] | 10 to 100
CCc1nn(C2CCN(C3CCOCC3)CC2)cc1Nc1ncc(-c2ccc(Cl)c(O[C@@H](C)Cn3cnnn3)c2)cn1 [Example 632, (S)-5-(3-((1-(1H-tetrazol-1-yl)propan-2-yl)oxy)-4-chlorophenyl)-N-(3-ethyl-1-(1-(tetrahydro-2H-pyran-4-yl)piperidin-4-yl)-1H-pyrazol-4-yl)pyrimidin-2-amine] | < 10
C[C@@H](Cn1cnnn1)Oc1cc(-c2cnc(Nc3cc(N4CC(N5CCOCC5)C4)ncc3OC(F)(F)F)nc2)ccc1Cl [Example 627, (S)-5-(3-((1-(1H-tetrazol-1-yl)propan-2-yl)oxy)-4-chlorophenyl)-N-(2-(3-morpholinoazetidin-1-yl)-5-(trifluoromethoxy)pyridin-4-yl)pyrimidin-2-amine] | 10 to 100
CNC(=O)C1CN(c2ccc(OC)c(Nc3ncc(-c4ccc(Cl)c(O[C@@H](C)Cn5cnnn5)c4)cn3)c2)C1 [Example 679, (S)-1-(3-((5-(3-((1-(1H-tetrazol-1-yl)propan-2-yl)oxy)-4-chlorophenyl)pyrimidin-2-yl)amino)-4-methoxyphenyl)-N-methylazetidine-3-carboxamide] | < 10
C[C@@H](Cn1cnnn1)Oc1cc(-c2cnc(Nc3cn(C4CCC(O)CC4)nc3C(F)(F)F)nc2)ccc1Cl (stereo partly drawn) [Example 670, (S)-4-(4-((5-(3-((1-(1H-tetrazol-1-yl)propan-2-yl)oxy)-4-chlorophenyl)pyrimidin-2-yl)amino)-3-(trifluoromethyl)-1H-pyrazol-1-yl)cyclohexan-1-ol] | 10 to 100
C[C@@H](Cn1cnnn1)Oc1cc(-c2cnc(Nc3cn(C4CCCN(C(=O)OC(C)(C)C)C4)nc3C(F)(F)F)nc2)ccc1Cl (stereo partly drawn) [Example 599, tert-butyl 3-(4-((5-(3-(((S)-1-(1H-tetrazol-1-yl)propan-2-yl)oxy)-4-chlorophenyl)pyrimidin-2-yl)amino)-3-(trifluoromethyl)-1H-pyrazol-1-yl)piperidine-1-carboxylate] | ≥ 100
